Data: patent US9808466B2, “Macrocyclic compounds as protein kinase inhibitors” (Fundación Centro Nacional de Investigaciones Oncologicas …, priority 2011, dated 2017)
pIC50: −log10 of the molar value. Where two headings read alike, the source gives them in different places.

Assays:
[1] = biological target: T1, PIM-1 (Homo sapiens, UniProt P11309); experiment: PIM-1 biochemical assay (ADP Hunter)
T1 construct: histidine tag (C); made in house
Text: The biochemical assay to measure PIM-1 activity relies on the ADP Hunter assay kit (DiscoveRx Corp., Cat. #90-0077), that determines the amount of ADP as direct product of the kinase enzyme activity.
The enzyme has been expressed and purified in-house as a recombinant human protein with a C-terminal histidine tag. The protein is active and stable.
Assay conditions were as indicated by the kit manufacturers with the following adaptations for the kinase activity step: • Kinase assay buffer and assay volume stay as recommended (15 mM HEPES, pH 7.4, 20 mM NaCl, 1 mM EGTA, 0.02% Tween 20, 10 mM MgCl2 and 0.1 mg/ml bovine γ-globulins/75 μl assay volume) • Incubation time and temperature: 60 min at 30° C. • PIM-1 concentration: 50 pg/μl • ATP concentration: 100 μM • PIM-1 substrate peptide: PIMtide ([…]) (SEQIDNO. 1) • Peptide concentration: 60 μM • Positive control for kinase activity inhibition: 1-10 μM Staurosporine • DMSO concentration have to stay below 2% during the kinase reaction
Assays were performed in either 96 or 384-well plates. The final outcome of the coupled reactions provided by the kit is the release of the fluorescent product Resorufin and has been measured with a multilabel HTS counter VICTOR V (PerkinElmer) using an excitation filter at 544 nm and an emission filter at 580 nm.

[2] = biological target: T2, PI3K (p110α/p85α) (Homo sapiens, UniProt P42336); experiment: PI3K activity assay (ADP Hunter Plus); format: biochemical
T2 construct: purchased Carna Biosciences 07CBS-0402A
Procedure: The kinase activity was measured by using the commercial ADP Hunter™ Plus assay available from DiscoveRx (#33-016), which is a homogeneous assay to measure the accumulation of ADP, a universal product of kinase activity. […] Reaction was carried out for 1 hour at 25° C. Reagent A and B were sequentially added to the wells and plates were incubated for 30 min at 37° C. Fluorescence counts were read in a Victor instrument (Perkin Elmer) with the recommended settings (544 and 580 nm as excitation and emission wavelengths, respectively). Values were normalized against the control activity included for each enzyme (i.e., 100% PI3 kinase activity, without compound). These values were plotted against the inhibitor concentration and were fit to a sigmoid dose-response curve by using the Graphad software.

[3] = biological target: T3, mTOR (Homo sapiens, UniProt P42345); experiment: mTOR assay (LanthaScreen kinase activity assay); format: biochemical
T3 construct: purchased Invitrogen PV4754
Procedure: The enzymatic mTOR activity was measured using a LanthaScreen™ kinase activity assay (Invitrogen). The enzyme was purchased from Invitrogen (PV4754), as well as the GFP-labeled substrate (4EBP1-GFP; PV4759) and the Tb-anti-p4EBP1(pThr46) antibody (PV4757). The assay was performed in 50 mM HEPES buffer, pH 7.5, containing 1.5 mM MnCl2, 10 mM MgCl2, 1 mM EGTA, 2.5 mM DTT and 0.01% Tween-20. The concentration of the assay components were the following: 0.24 nM mTOR kinase, 400 nM 4EBP1-GFP, […] and serial dilutions of the compound (inhibitor) to be evaluated. After 1 h incubation at room temperature, 20 mM EDTA was used to stop the reaction and terbium-labeled antibody (4 nM) added to detect phosphorylated product. The antibody associates with the phosphorylated product resulting in an increased TR-FRET value. The TR-FRET value (a dimensionless number) was calculated as the ratio of the acceptor signal (GFP, emission at 520 nm) to the donor signal (terbium, emission at 495 nm). Values were plotted against the inhibitor concentration and fitted to a sigmoid dose-response curve using GraphPad software.

[4] = read-out: PIM-1 activity (semi-quantitative IC50)
[5] = read-out: PI3K alpha activity (semi-quantitative IC50)
[6] = read-out: mTOR activity (semi-quantitative IC50)
[7] = PIM1, read-out: PIM-1 activity, IC50 (semi-quantitative class)
[8] = read-out: PI3K alpha activity, IC50 (semi-quantitative class)
[9] = read-out: mTOR activity, IC50 (semi-quantitative class)
[10] = read-out: PI3K alpha actual IC50 (in parentheses)
[11] = read-out: mTOR actual IC50 (in parentheses)

T1 sequence (P11309 whole entry): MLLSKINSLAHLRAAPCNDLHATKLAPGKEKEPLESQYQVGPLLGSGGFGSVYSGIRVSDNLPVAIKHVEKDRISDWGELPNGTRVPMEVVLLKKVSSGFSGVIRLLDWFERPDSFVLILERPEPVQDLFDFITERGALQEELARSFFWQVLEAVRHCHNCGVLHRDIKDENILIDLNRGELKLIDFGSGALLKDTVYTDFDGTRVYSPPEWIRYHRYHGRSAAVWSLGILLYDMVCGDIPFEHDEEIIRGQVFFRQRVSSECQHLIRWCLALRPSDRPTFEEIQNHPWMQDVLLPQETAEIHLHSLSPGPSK
T2 sequence (P42336 whole entry): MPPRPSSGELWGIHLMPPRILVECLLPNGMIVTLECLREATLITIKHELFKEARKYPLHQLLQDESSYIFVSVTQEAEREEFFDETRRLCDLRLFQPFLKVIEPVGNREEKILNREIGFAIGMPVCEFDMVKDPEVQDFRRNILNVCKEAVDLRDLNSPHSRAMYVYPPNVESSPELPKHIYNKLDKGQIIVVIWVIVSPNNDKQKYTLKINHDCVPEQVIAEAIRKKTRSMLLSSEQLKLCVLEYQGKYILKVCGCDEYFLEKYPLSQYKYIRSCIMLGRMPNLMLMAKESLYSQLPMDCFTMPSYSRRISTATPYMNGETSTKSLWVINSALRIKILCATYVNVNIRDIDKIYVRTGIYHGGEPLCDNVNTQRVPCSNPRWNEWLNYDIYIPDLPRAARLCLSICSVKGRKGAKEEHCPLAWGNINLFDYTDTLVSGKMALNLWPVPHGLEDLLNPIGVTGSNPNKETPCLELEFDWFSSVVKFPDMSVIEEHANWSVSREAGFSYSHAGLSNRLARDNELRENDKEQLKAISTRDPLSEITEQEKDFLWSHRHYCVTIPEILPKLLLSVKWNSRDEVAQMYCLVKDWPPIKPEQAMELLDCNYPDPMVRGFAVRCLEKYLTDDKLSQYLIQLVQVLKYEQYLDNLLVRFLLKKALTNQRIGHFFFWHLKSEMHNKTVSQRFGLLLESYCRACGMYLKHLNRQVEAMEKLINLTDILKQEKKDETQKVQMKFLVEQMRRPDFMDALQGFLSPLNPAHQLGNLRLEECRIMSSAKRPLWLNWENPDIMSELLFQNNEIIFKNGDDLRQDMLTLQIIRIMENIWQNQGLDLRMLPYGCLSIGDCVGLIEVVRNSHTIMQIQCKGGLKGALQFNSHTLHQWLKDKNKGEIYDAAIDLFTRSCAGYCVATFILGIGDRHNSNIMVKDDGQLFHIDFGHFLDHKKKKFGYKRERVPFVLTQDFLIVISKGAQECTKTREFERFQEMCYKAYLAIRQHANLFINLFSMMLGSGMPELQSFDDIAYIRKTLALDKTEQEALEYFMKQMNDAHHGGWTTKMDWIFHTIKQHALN
T2 sequence (P27986 whole entry partner): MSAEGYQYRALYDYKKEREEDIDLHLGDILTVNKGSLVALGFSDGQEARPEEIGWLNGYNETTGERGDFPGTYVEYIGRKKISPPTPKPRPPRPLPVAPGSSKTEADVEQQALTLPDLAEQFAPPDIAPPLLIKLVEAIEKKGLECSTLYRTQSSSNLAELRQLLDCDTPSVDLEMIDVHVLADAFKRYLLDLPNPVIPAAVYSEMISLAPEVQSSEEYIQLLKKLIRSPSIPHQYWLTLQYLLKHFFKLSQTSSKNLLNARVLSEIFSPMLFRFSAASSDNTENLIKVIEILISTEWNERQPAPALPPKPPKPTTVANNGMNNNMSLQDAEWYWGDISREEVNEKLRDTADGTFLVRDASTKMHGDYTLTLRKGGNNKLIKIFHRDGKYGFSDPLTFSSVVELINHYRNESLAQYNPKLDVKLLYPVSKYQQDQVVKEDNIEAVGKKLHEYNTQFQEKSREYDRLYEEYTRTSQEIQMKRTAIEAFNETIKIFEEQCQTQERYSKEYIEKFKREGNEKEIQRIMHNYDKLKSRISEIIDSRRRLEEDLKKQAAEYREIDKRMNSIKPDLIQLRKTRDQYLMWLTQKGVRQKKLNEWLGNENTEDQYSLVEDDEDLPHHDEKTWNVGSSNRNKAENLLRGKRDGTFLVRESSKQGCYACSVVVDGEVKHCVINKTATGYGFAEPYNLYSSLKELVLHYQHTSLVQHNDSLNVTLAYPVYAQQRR
T3 sequence (P42345 1360-2549 limits assumed): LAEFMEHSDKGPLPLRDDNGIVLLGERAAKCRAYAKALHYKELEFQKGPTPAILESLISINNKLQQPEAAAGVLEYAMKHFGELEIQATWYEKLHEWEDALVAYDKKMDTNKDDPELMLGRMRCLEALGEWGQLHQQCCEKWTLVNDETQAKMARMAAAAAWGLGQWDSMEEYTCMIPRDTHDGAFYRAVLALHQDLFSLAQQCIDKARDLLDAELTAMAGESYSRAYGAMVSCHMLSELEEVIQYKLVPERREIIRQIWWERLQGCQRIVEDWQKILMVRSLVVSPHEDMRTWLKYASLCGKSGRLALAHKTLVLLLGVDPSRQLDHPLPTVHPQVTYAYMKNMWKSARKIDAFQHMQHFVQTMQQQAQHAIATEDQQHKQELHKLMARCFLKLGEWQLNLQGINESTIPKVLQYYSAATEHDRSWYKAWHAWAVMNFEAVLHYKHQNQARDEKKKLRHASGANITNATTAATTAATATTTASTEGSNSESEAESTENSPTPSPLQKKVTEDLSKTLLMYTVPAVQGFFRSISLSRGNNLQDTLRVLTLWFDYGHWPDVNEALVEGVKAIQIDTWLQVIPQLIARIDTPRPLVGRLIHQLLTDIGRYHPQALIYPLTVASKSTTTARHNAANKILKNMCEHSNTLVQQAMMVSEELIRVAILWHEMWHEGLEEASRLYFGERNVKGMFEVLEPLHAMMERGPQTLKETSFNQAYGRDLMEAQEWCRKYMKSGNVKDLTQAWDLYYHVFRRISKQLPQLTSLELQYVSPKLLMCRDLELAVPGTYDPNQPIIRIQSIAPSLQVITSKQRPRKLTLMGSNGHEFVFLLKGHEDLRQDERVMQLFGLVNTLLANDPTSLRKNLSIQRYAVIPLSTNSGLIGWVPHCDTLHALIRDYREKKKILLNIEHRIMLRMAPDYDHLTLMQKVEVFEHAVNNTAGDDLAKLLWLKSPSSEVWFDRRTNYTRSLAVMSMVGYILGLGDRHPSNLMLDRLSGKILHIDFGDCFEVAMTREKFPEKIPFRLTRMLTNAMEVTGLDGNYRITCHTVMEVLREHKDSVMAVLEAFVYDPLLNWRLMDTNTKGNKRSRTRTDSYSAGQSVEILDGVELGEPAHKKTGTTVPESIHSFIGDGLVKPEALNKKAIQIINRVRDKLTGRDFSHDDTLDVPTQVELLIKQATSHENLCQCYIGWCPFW

| SMILES | pIC50 ([1]; read-out: PIM-1 IC50 (in parentheses)) | pIC50 [1, 4] | pIC50 [2, 5] | pIC50 [3, 6] | pIC50 ([2]; read-out: PI3K alpha IC50 (in parentheses)) | pIC50 [1, 7] | pIC50 ([1]; PIM1, read-out: PIM-1 actual IC50 (in parentheses)) | pIC50 [2, 8] | pIC50 [3, 9] | pIC50 [2, 10] | pIC50 [3, 11] |
| --- | --- | --- | --- | --- | --- | --- | --- | --- | --- | --- | --- |
| COc1ccc2cc1C(=O)NCC1=CC=C(S1)c1ncnc3c1SC(=C3)c1cnc(OC)c(c1)NS2(=O)=O [compound 97] | 7.21 | > 7.00 | 6.00 to 7.00 | < 6.00 | – | – | – | – | – | – | – |
| COCCOc1ccc2cc1C(=O)NCC1=CC=C(S1)c1ncnc3c1SC(=C3C)c1cnc(OC)c(c1)NS2(=O)=O [compound 95] | – | 6.00 to 7.00 | > 7.00 | < 6.00 | 7.70 | – | – | – | – | – | – |
| COc1ncc2cc1NS(=O)(=O)c1cccc(c1)C(=O)NC[C@H]1CCN(C1)c1ncnc3c1SC2=C3 [compound 87] | – | 6.00 to 7.00 | < 6.00 | < 6.00 | – | – | – | – | – | – | – |
| COc1ncc2cc1NS(=O)(=O)c1cccc(c1)C(=O)NCc1cncc(c1)-c1ncnc3c1SC2=C3 [compound 27] | – | – | – | – | – | > 7.00 | 7.40 | 6.00 to 7.00 | < 6.00 | – | – |
| COc1ncc2cc1NS(=O)(=O)c1cccc(c1)C(=O)NCc1ccc(F)c(c1)-c1ccnc3ccc-2cc13 [compound 4] | – | – | – | – | – | < 6.00 | – | > 7.00 | 6.00 to 7.00 | 8.52 | – |
| COc1ncc2cc1NS(=O)(=O)c1cccc(c1)C(=O)NCCn1cc(cn1)-c1ncnc3c1SC2=C3 [compound 36] | – | – | – | – | – | 6.00 to 7.00 | – | 6.00 to 7.00 | < 6.00 | – | – |
| COc1ncc2cc1NS(=O)(=O)c1cccc(c1)C(=O)NCCn1cc(cn1)-c1cnc3ccc-2nn13 [compound 18] | – | – | – | – | – | < 6.00 | – | > 7.00 | > 7.00 | 8.30 | 7.17 |
| COc1ncc2cc1NS(=O)(=O)c1cccc(c1)C(=O)NCCn1cc(cn1)-c1cnc3ccc-2cn13 [compound 34] | – | – | – | – | – | < 6.00 | – | > 7.00 | > 7.00 | 8.12 | 7.18 |
| COc1ncc2cc1NS(=O)(=O)c1cccc(c1)C(=O)NCc1cccc(c1)-c1cnc3sc-2nn13 [compound 17] | – | – | – | – | – | < 6.00 | – | > 7.00 | 6.00 to 7.00 | 8.05 | – |
| COc1ncc2cc1NS(=O)(=O)c1cccc(c1)C(=O)NC[C@H]1CN(CCO1)c1ncnc3c1SC2=C3 [compound 64] | – | – | – | – | – | 6.00 to 7.00 | – | < 6.00 | < 6.00 | – | – |
| COc1ncc2cc1NS(=O)(=O)c1cccc(c1)C(=O)NCc1cncc(c1)-c1nc(C)nc3c1SC2=C3 [compound 54] | – | – | – | – | – | < 6.00 | – | 6.00 to 7.00 | < 6.00 | – | – |
| COc1ncc2cc1NS(=O)(=O)c1cc(c(F)cc1F)C(=O)NCc1cccc(c1)-c1cnn3ccc-2nc13 [compound 67] | – | – | – | – | – | < 6.00 | – | > 7.00 | > 7.00 | 9.30 | 7.92 |
| COc1ncc2cc1NS(=O)(=O)c1cccc(c1)C(=O)Nc1cncc(c1)-c1ncnc3c1SC2=C3 [compound 47] | – | – | – | – | – | < 6.00 | – | > 7.00 | > 7.00 | 7.00 | 8.07 |
